# US20080255244A1, “CaM Kinase II Inhibitor Improves Retinoic Acid Therapy and Inhibits the Proliferation of Myeloid Leukemia Cells” (Fred Hutchinson Cancer Research Center, priority 2007, published 2008)
# Tests used:
# Format in all cases: cell-based, human
# [1] = system: activated CaMKIIγ in THP1 cells; assay: Western blot of CaMKIIγ autophosphorylation in THP1 cells; settings: five days ATRA
# Method: FIG. 9. Terminal differentiation/apoptosis of myeloid leukemia cells is associated with decreased CaMKIIγ activation. (A) Lysates from the HL60, NB4 and U937 myeloid cell lines treated with ATRA (1 μM) for the indicated period of time were subjected to Western blots. (B) Lysates from the indicated myeloid cell lines treated for five days with the indicated concentration of ATRA were subjected to Western blots. (C) Lysates from HL60 cells treated with TPA (0.1 μM) for the indicated time were subjected to Western blots. (D) Lysates from NB4 cells treated with arsenic trioxide (1 uM) for the indicated time were subjected to Western blots.
# Antibodies and Western blots. Protein extracts, immunoprecipitations and Western blots were performed as previously detailed (Si J, Collins S J. IL-3-induced enhancement of retinoic acid receptor activity is mediated through Stat5, which physically associates with retinoic acid receptors in an IL-3-dependent manner. Blood 100: 4401-9 (2002)). Antibodies against CaMKI, CaMKIIγ, CaMKIV, c-myc, Stat3, Stat5, calmodulin, as well as the phosphospecific CaMKII (T286, 287) and phosphospecific CaMKI (T177) antibodies were from Santa Cruz Biotechnology. […]
# [2] = system: HL-60 cells; assay: Differentiation of HL-60 cells (Wright Giemsa morphology, Cd11b FACS); settings: single agent; five days; KN62 5 μM
# Method: FIG. 7. KN-62 regulates the differentiation of myeloid leukemia cell lines. (A) Wright Giemsa-stained HL-60 cells either (a) uninduced or treated for five days with (b) KN62 or (c) ATRA. (d) CD11b expression in HL-60 cells after five days exposure to KN62 (5 μM) or ATRA (1 μM). (B) Wright-Giemsa stained NB4 cells treated for five days with KN-62 (5 μM) and ATRA as indicated. […] (C) Cd11b expression of NB4 cells treated for five days with the indicated concentrations of RA and/or KN-62. (D) Western blots with the indicated antibodies were performed on HL60 cell lysates following incubation with KN62 for the indicated period of time. (E) Western blots of NB4 cell lysates following a five day incubation with the indicated compounds.
# Antibodies and chemical reagents. Antibodies against RARα, βtubulin, CaMKIIα, CaMKIIβ, CaMKIIγ, CaMKIIδ, CaMKIα, as well as phosphospecific antibodies against CaMKII were all purchased from Santa Cruz Biotechnology. Antibodies against N-CoR and SMRT were from Upstate Biotechnology. CaMKIV antibody was from BD Biosciences. Anti-FLAG antibody was from Sigma while anti-HA antibody from Novachem. Quantitation of CD11b surface antigen expression was performed utilizing the fluorescent-activated cell sorter (FACS) with PE-conjugated anti-CD11b antibody from Becton Dickinson. KN-62, KN-93 and ionomycin were obtained from Calbiochem. […]
# [3] = system: KCL-22 cells; assay: Differentiation of KCL-22 cells; settings: preliminary studies; not shown
# Text: Pharmacological CaMK inhibitors trigger myeloid leukemia cell differentiation. Particularly compelling evidence for the physiological importance of the CaMKII—mediated regulation of RAR activity is our experimental observation that KN-62, a pharmacological inhibitor of the CaMKs, enhances both RAR transcriptional activity (FIG. 1B) and the differentiation of certain myeloid leukemia cell lines (FIG. 7). Acute myelogenous leukemia (AML) is a heterogenous disease, and successful therapy with RA has been generally confined to those leukemias harboring RARα chromosome translocations.
# [4] = system: KG-1 cells; assay: KG-1 proliferation in liquid suspension culture
# Method: (§1) FIG. 11. […] (A) K562 cells were seeded in liquid suspension culture at 5×10^4 cells/ml in the presence or absence of the indicated concentration of compounds, and cell counts were obtained at the indicated time. (B) The indicated myeloid leukemia cell lines were seeded in liquid suspension culture at 5×10^4 cells/ml in the presence or absence of KN93, and cell counts obtained at the indicated time. (C) K562 cells were electroporated with the LXSN expression vector harboring the kinase dead, Lys^43 mutated, truncated CaMKII construct (kdCaMKII) as well as with the control (empty) LXSN vector. The electroporated cells were diluted into 96 well plates in liquid suspension culture in the presence of G418 (1 mg/ml). Following eight days of culture the total number of discrete, actively proliferating G418 resistant colonies within individual wells was determined.
# (§2) Cell lines. All leukemia cell lines are cultured at 37° in RPMI supplemented with 5% heat-inactivated fetal calf serum.
# [5] = system: Kasumi cells; assay: Kasumi proliferation in liquid suspension culture
# Method: as §1, §2
# [6] = system: KCL22 cells; assay: KCL22 proliferation in liquid suspension culture
# Method: as §1, §2
# [7] = system: THP1 cells; assay: THP1 proliferation in liquid suspension culture
# Method: as §1, §2
# [8] = system: K562 cells; assay: Western blots of signal transduction pathways in K562 cells; settings: K562 cultured in KN93
# Method: FIG. 12. CaMKII regulates multiple signal transduction pathways in myeloid cells. (A,B) Lysates from K562 cells cultured for the indicated time in KN93 were subjected to Western blots. (C) The K562 cells transduced as described in Materials and Methods with either (i) the doxycycline (DOX) inducible expression vector/transactivator harboring the full length, Lys^43 mutated, kinase dead CaMKIIγ (kdCaMKIIγ (Tet-on)) or (ii) the CaMKII shRNA generating plasmids, were cultured in liquid suspension in the presence or absence of DOX as indicated, and cell counts obtained after 48 hours. (D) Lysates from K562 cells transduced with the indicated vectors were subjected to Western blots utilizing the indicated antibodies. For lanes 2 and 4 doxycycline (DOX) treatment was for two days.
# Antibodies and Western blots. Protein extracts, immunoprecipitations and Western blots were performed as previously detailed (Si J, Collins S J. IL-3-induced enhancement of retinoic acid receptor activity is mediated through Stat5, which physically associates with retinoic acid receptors in an IL-3-dependent manner. Blood 100: 4401-9 (2002)). Antibodies against CaMKI, CaMKIIγ, CaMKIV, c-myc, Stat3, Stat5, calmodulin, as well as the phosphospecific CaMKII (T286, 287) and phosphospecific CaMKI (T177) antibodies were from Santa Cruz Biotechnology. Antibodies against phospho-Stat1 (Ser727), phospho-Stat3 (Ser727 and Tyr 705), phospho-Stat5 (Tyr 694), phospho-p44/42 MAP kinase (Thr202/Tyr 204), p44/42 MAP kinase, phospho-p38 MAP kinase (Thr 180/Tyr 182), phospho-GSK3β (Ser9) were from Cell Signaling Technology. Antibodies against Stat1, GSK3β, β-catenin, PP2Ac, and cyclin D1 were from BD Biosciences.
compound,measurement,setting,value
"CC1=C(/C=C/C(C)=C/C=C/C(C)=C/C(=O)O)C(C)(C)CCC1 [ATRA, All-trans retinoic acid]",activated CaMKIIγ level,[1],did not exhibit any decrease
CN([C@@H](Cc1ccc(OS(=O)(=O)c2cccc3cnccc23)cc1)C(=O)N1CCN(c2ccccc2)CC1)S(=O)(=O)c1cccc2cnccc12 [KN-62],HL-60 differentiation (morphologic differentiation and Cd11b expression),[2],potent inducer
same,differentiation of KCL-22,[3],does not induce
COc1ccc(S(=O)(=O)N(CCO)c2ccccc2CN(C)C/C=C/c2ccc(Cl)cc2)cc1 [KN-93],cell proliferation,[4],inhibition
same,cell viability or morphologic differentiation,[4],without any significant effect
same,cell proliferation,[5],inhibition
same,cell viability or morphologic differentiation,[5],without any significant effect
same,cell proliferation,[6],inhibition
same,cell viability or morphologic differentiation,[6],without any significant effect
same,cell proliferation,[7],inhibition
same,cell viability or morphologic differentiation,[7],without any significant effect
same,GSK3β Ser9 phosphorylation,[8],marked reduction
same,activation (phosphorylation) of p38,[8],decrease
same,activation (phosphorylation) of pMAPK p44/42,[8],decrease
same,"activation (phosphorylation) of pStat3 (Y705, S727)",[8],decrease
same,activation (phosphorylation) of pStat5 (Y694),[8],decrease
same,c-myc protein level,[8],reduction
same,cyclin D1 protein level,[8],reduction
same,expression of β-catenin,[8],marked reduction
same,total levels of these phosphorylated proteins,[8],not accompanied by any change
